Experimental data published in patent publication US20120130481A1, “LOCAL VASCULAR DELIVERY OF ADENOSINE A2A RECEPTOR AGONISTS IN COMBINATION WITH OTHER AGENTS TO REDUCE MYOCARDIAL INJURY” (priority 2010, published 2012).

Columns and labels:
[1] = In vivo release kinetics from dual drug reservoir stent, porcine coronary artery model; conditions: at thirty (30) days, 3.5×17 mm reservoir stent, PLGA75/25, in vivo (FIG. 18)
Excerpt: FIG. 18 graphically illustrates the release kinetic curves for sirolimus 1902 and cilostazol 1904 over a period of thirty (30) days from an in vivo release kinetics study. As illustrated, the release kinetics are similar for both drugs with approximately seventy (70) percent of both drugs being released from the stent at thirty (30) days (sirolimus being a little higher than the cilostazol). A 3.5×17 mm stent with reservoirs was utilized in the study. Each drug was placed individually in a reservoir to create an alternating pattern. The basic construct of each reservoir fill was a base (luminal side of the stent) comprising only polymer (PLGA75/25) and no drug, a drug matrix either comprising 120.4 micro grams of cilostazol and 197.1 micro grams of polymer (PLGA75/25) or 146.9 micro grams of sirolimus and 175.0 micro grams of polymer (PLGA75/25), and a cap comprising only polymer (PLGA75/25). The stent was placed in a standard porcine coronary artery model to evaluate the in vivo release kinetics and tissue concentration of both drugs released from the stent over time.

[2] = tested on: platelet deposition and thrombus formation on the stent surface; assay: In vitro bovine blood loop model (anti-thrombotic activity); conditions: FIG. 12, cilostazol in sirolimus/cilostazol coatings
Excerpt: The anti-thrombotic efficacy of the above-described three configurations is illustrated in FIG. 12. FIG. 12 illustrates the anti-thrombotic properties of the sirolimus/cilostazol combination coatings described above in an in vitro bovine blood loop model. In the in vitro bovine blood loop model, fresh bovine blood is heparinized to adjust for acute clotting time (ACT) of about two hundred (200) seconds. The platelet content in the blood is labeled through the use of Indium 111. In the study, a stent is deployed in a silicone tube, which is part of a closed loop system for blood circulation. The heparinzed blood is circulated through the closed loop system by means of a circulating pump. Activated platelets, fibrin and thrombus builds up on a stent surface over time and reduces the flow rate of blood through the stented loop. The flow is stopped when the flow rate is reduced to fifty (50) percent of the starting value or at ninety (90) minutes if none of the tested stent reduces the flow by fifty (50) percent. The total radioactivity (In 111) on the stent surface is counted by a […] and normalized with the control unit, set as one hundred (100) percent in the chart. […]

[3] = In vitro release kinetics of sirolimus/cilostazol stent coatings; type: physicochemical
[4] = Porcine drug elution PK study of dual drug eluting coating (in vivo release); parameters: species or system pig; conditions: after eight (8) days of implantation, single layer configuration of FIG. 15 (FIG. 13)
Excerpt: Another critical parameter for the performance of the thrombus resistance of a device coated with cilostazol is the duration of the drug release from the coating. This is of particular significance in the two weeks after device implantation. In the porcine drug elution PK studies of the dual drug eluting coating, both cilostazol and sirolimus were slowly released from the coating, resulting in a sustained drug release profile. The purpose of the porcine PK study is to assess the local pharmacokinetics of a drug eluting stent at a given implantation time. Normally three stents are implanted in three different coronary arteries in a pig for a given time point and then retrieved for total drug recovery analysis. The stents are retrieved at predetermined time points; namely, 1, 3 and 8 days. The stents are extracted and the total amount of drug remaining on the stents is determined by analysis utilizing HPLC (high performance liquid chromatography) for total drug amount. The difference between the original amount of drug on the stent and the amount of drug retrieved at a given time represents the amount of drug released in that period. The continuous release of drug into surrounding arterial tissue is what prevents the neointimal growth and restenosis in the coronary artery. A normal plot represents the percentage of total drug released (%, y-axis) vs. time of implantation (day, x-axis). […]

[5] = cited from earlier work

Structure (SMILES) | drug released from the stent [1] | thrombus formation [2] | drug release rate, 200 µg vs 100 µg BMA diffusion overcoat ([3]; configuration of FIG. 7 (200 µg BMA) compared with FIG. 9 (100 µg BMA), FIGS. 8 and 10) | in vitro release rate compared to the dual drug base coating ([3]; configuration of FIG. 7 vs FIG. 15) | in vitro release ([3]; single layer configuration of FIG. 15 (FIG. 14)) | drug remained in the drug coating [4] | solubility in water [5]
O=C1CCc2cc(OCCCCc3nnnn3C3CCCCC3)ccc2N1 [cilostazol, 6[4-(1-cyclohexyl-1H-tetrazol-5-yl)-butoxy]-3,4-dihydro-2-(1H)-quinolinone] | ~70% | significantly reduces thrombus formation | comparatively slower | much faster rate | ~35% | ~80% | relatively low solubility in water
CO[C@H]1C[C@@H]2CC[C@@H](C)[C@@](O)(O2)C(=O)C(=O)N2CCCC[C@H]2C(=O)O[C@H]([C@H](C)C[C@@H]2CC[C@@H](O)[C@H](OC)C2)CC(=O)[C@H](C)/C=C(\C)[C@@H](O)[C@@H](OC)C(=O)[C@H](C)C[C@H](C)/C=C/C=C/C=C/1C [sirolimus] | ~70% |  |  |  |  | ~80% | 
